Laboratory results reported in US20060063759A1, “Tricyclic steroid hormone nuclear receptor modulators” (priority 2002, published 2006).

Tests used:
glucocorticoid receptor = target: T1, glucocorticoid receptor (Homo sapiens, UniProt P04150); assay: Glucocorticoid Receptor Binding Assay ([3H]-dexamethasone, A549 cell extract); conditions: [3H]-dexamethasone binding, read-out: GR Ki
T1 construct: containing 50-200 ug of A549 cell extract and 1.86 nM [^3H]-dexamethasone; host or cells: A549 human lung epithelial cells (sonicated cell extract)
T1 sequence (P04150 1-777): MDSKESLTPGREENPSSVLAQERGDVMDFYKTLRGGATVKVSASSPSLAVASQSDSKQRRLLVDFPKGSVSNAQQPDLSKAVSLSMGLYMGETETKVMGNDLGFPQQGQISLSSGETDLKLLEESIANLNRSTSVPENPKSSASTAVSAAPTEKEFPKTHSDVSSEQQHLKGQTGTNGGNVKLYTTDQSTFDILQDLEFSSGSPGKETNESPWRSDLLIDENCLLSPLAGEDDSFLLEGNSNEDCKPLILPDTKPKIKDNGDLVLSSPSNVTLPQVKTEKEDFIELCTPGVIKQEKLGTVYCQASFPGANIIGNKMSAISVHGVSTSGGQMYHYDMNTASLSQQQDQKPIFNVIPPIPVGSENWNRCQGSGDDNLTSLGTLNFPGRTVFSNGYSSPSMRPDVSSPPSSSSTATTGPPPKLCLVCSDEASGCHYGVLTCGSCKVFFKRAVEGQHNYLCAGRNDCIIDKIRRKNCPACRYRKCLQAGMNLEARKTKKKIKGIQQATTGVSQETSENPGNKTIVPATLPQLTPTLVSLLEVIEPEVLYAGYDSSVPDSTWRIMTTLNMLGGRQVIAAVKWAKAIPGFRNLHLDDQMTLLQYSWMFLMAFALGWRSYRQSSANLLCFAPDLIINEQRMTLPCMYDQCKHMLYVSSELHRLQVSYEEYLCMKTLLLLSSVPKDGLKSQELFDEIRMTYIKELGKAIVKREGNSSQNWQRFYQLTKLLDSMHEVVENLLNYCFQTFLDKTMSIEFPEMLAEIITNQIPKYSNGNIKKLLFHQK
How it was run: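 A549 cell extract (50–200 ug) incubated with 1.86 nM [3H]-dexamethasone and test compound for 16 h at 4 °C in Tris-HCl pH 7.2 buffer with glycerol and molybdate. Unbound radioligand removed by dextran-coated charcoal, then supernatant bound counts measured by scintillation.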

human MR = target: T2, human MR (Homo sapiens, UniProt P08235); assay: Mineralocorticoid Receptor Binding Assay ([3H]-aldosterone); conditions: [3H]-aldosterone binding, human MR expressed in Sf9 cells; read-out: MR Ki
T2 construct: The full length human MR gene is cloned from a human kidney or human brain cDNA library; His tag from the pAcHLT vector (own knowledge); made in house; host or cells: Sf9 insect cells (baculovirus, pAcHLT transfer vector)
T2 sequence (P08235 1-984): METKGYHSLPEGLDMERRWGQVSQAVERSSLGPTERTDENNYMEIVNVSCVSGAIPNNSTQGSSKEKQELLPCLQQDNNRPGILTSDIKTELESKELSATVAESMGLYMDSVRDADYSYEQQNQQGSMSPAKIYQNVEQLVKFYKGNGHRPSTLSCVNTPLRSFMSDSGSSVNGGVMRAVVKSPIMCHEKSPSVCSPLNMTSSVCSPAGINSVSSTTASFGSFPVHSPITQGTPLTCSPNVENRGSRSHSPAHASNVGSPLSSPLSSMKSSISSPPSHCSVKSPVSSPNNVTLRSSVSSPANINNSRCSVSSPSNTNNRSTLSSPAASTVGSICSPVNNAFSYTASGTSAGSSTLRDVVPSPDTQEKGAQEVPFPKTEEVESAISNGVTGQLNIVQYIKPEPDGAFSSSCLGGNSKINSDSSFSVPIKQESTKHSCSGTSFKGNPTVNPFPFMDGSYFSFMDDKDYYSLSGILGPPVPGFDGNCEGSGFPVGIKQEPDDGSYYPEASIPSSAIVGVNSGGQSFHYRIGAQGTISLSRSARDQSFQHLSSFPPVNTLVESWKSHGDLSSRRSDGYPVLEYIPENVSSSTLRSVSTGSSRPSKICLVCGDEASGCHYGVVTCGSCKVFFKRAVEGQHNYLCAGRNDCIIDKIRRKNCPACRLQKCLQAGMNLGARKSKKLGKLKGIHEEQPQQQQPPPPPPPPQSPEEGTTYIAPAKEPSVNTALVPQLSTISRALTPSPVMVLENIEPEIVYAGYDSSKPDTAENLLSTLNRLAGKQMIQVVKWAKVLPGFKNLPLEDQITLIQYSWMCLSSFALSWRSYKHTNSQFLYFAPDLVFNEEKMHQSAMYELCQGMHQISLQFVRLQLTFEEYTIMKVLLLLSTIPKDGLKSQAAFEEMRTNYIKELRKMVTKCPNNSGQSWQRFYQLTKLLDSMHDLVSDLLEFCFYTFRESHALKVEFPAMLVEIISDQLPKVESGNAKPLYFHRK
How it was run: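 Lysate supernatant of Sf9 cells expressing full-length human MR (20-25 μg protein) was incubated with 0.5 nM [3H]-aldosterone and test compound in molybdate/Tris/phosphate/glycerol buffer, pH 7.5, ~16 h at 4 °C. Bound ligand was filtered and counted by scintillation; IC50 is the concentration halving [3H]-aldosterone binding.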

Row | Ki (glucocorticoid receptor) | Ki (human MR) | Structure (SMILES)
1 | < 1000 nM | < 500 nM | O=c1[nH]c2ccc(/C=C3/c4ccccc4CCc4cc(C(F)F)ccc43)cc2[nH]1 [Example 452]
2 | < 1000 nM | < 500 nM | O=c1[nH]c2ccc(/C=C3\c4ccccc4CCc4cc(C(F)F)ccc43)cc2[nH]1 [Example 453]
3 | < 500 nM | < 500 nM | Cn1c(=O)[nH]c2cc(C=C3c4ccccc4CCc4ccccc43)ccc21 [Example 454]
4 | < 10000 nM | < 500 nM | N#Cc1ccc2c(c1)CCc1ccccc1/C2=C/c1ccc2[nH]c(=O)[nH]c2c1 [Example 455]
5 | < 10000 nM | < 500 nM | N#Cc1ccc2c(c1)CCc1ccccc1/C2=C\c1ccc2[nH]c(=O)[nH]c2c1 [Example 456]
6 | < 500 nM | < 500 nM | O=c1[nH]c2cc(C=C3c4ccc(F)cc4CCc4cc(F)ccc43)ccc2s1 [Example 457]
7 | < 500 nM | < 500 nM | O=c1[nH]c2cc(C=C3c4ccc(F)cc4CCc4cc(F)ccc43)ccc2o1 [Example 458]
8 | < 1000 nM | < 500 nM | Cn1c(=O)[nH]c2cc(C=C3c4ccc(F)cc4CCc4cc(F)ccc43)ccc21 [Example 459]
9 | < 1000 nM | < 500 nM | Nc1n[nH]c2cc(C=C3c4ccc(F)cc4CCc4cc(F)ccc43)ccc12 [Example 460]
10 | < 500 nM | < 500 nM | Cn1c(=O)[nH]c2cc(/C=C3/c4ccccc4CCc4cc(F)ccc43)ccc21 [Example 461]
11 | < 1000 nM | < 500 nM | Cn1c(=O)[nH]c2cc(/C=C3\c4ccccc4CCc4cc(F)ccc43)ccc21 [Example 462]
12 | < 10000 nM | < 500 nM | O=c1[nH]c2ccc(C=C3c4ccccc4CCc4cc(F)cc(F)c43)cc2[nH]1 [Example 463]
13 | < 10000 nM | < 500 nM | CC(C)n1c(=O)[nH]c2cc(C=C3c4ccc(F)cc4CCc4cc(F)ccc43)ccc21 [Example 464]
14 | < 1000 nM | < 500 nM | O=c1[nH]c2ccc(/C=C3/c4ccccc4CCc4cccc(Cl)c43)cc2[nH]1 [Example 465]
15 | < 1000 nM | < 500 nM | O=c1[nH]c2ccc(/C=C3\c4ccccc4CCc4cccc(Cl)c43)cc2[nH]1 [Example 466]
16 | < 500 nM | < 500 nM | O=c1[nH]c2cc(C=C3c4ccccc4CCc4ccccc43)ccc2s1 [Example 467]
17 | < 500 nM | < 500 nM | O=c1[nH]c2cc(/C=C3/c4ccccc4CCc4cc(F)ccc43)ccc2s1 [Example 468]
18 | < 500 nM | < 500 nM | O=c1[nH]c2cc(/C=C3\c4ccccc4CCc4cc(F)ccc43)ccc2s1 [Example 469]
19 | < 10000 nM | < 500 nM | O=c1[nH]c2ccc(C=C3c4cccc(F)c4CCc4c(F)cccc43)cc2[nH]1 [Example 470]
20 | < 500 nM | < 500 nM | O=c1[nH]c2cc(C=C3c4cccc(F)c4CCc4c(F)cccc43)ccc2o1 [Example 471]
21 | < 10000 nM | < 500 nM | O=c1[nH]c2ccc(/C=C3\c4ccccc4CCc4cc(C(F)(F)F)ccc43)cc2[nH]1 [Example 472]

Row | Ki (glucocorticoid receptor) | Ki (human MR) | Structure (SMILES)
22 | < 10000 nM | < 500 nM | O=c1[nH]c2ccc(/C=C3/c4ccccc4CCc4cc(C(F)(F)F)ccc43)cc2[nH]1 [Example 473]
23 | < 1000 nM | < 500 nM | Fc1ccc2c(c1)CCc1ccccc1C2=Cc1cccnc1F [Example 474]
24 | < 10000 nM | < 500 nM | CS(=O)(=O)Nc1cccc(/C=C2\c3ccccc3CCc3sccc32)c1 [Example 475]
25 | < 500 nM | < 500 nM | CS(=O)(=O)Nc1cccc(/C=C2/c3ccccc3CCc3sccc32)c1 [Example 476]
26 | < 10000 nM | < 500 nM | Nc1cccc(C=C2c3ccccc3CCc3sccc32)c1 [Example 477, 3-(9,10-Dihydro-1-thia-benzo[f]azulen-4-ylidenemethyl)-phenylamine]
27 | < 10000 nM | < 500 nM | Nc1cccc(/C=C2\c3ccc(Cl)cc3CCc3sccc32)c1 [Example 478, 3-(7-Chloro-9,10-dihydro-1-thia-benzo[f]azulen-4-ylidenemethyl)-phenylamine]
28 | < 500 nM | < 500 nM | CS(=O)(=O)Nc1cccc(/C=C2\c3ccccc3CCc3sc(Cl)cc32)c1 [Example 481, N-[3-(2-Chloro-9,10-dihydro-1-thia-benzo[f]azulen-4-ylidenemethyl)-phenyl]-methanesulfonamide]
29 | < 500 nM | < 500 nM | CS(=O)(=O)Nc1cccc(/C=C2\c3ccc(Cl)cc3CCc3sc(Cl)cc32)c1 [Example 482, N-[3-(2,7-Dichloro-9,10-dihydro-1-thia-benzo[f]azulen-4-ylidenemethyl)-phenyl]-methanesulfonamide]
30 | < 1000 nM | < 500 nM | O=c1[nH]c2ccc(/C=C3\c4ccc(F)cc4CCc4ncccc43)cc2[nH]1 [Example 487, (E)-5-(8-Fluoro-10,11-dihydro-benzo[4,5]cyclohepta[1,2-b]pyridin-5-ylidenemethyl)-1,3-dihydro-benzoimidazol-2-one]
31 | < 500 nM | < 500 nM | CS(=O)(=O)Nc1cc(F)cc(/C=C2\c3ccc(F)cc3CCc3ncccc32)c1 [Example 488, (E)-N-[3-Fluoro-5-(8-fluoro-10,11-dihydro-benzo[4,5]cyclohepta[1,2-b]pyridin-5-ylidenemethyl)-phenyl]-methanesulfonamide]
32 | < 10000 nM | < 500 nM | C(=C1c2ccccc2CCc2sccc21)c1ccccc1 [Example 489]
33 | < 10000 nM | < 1000 nM | Clc1ccc(C=C2c3ccccc3CCc3sccc32)c(Cl)c1 [Example 490]
34 | < 10000 nM | < 500 nM | Cc1cc(C)cc(C=C2c3ccccc3CCc3sccc32)c1 [Example 491]
35 | < 500 nM | < 500 nM | CS(=O)(=O)Nc1ccc(C=C2c3ccccc3CCc3sccc32)cc1 [Example 495]
36 | < 500 nM | < 500 nM | CS(=O)(=O)Nc1cccc(/C=C2\c3ccc(Cl)cc3CCc3sccc32)c1 [Example 496]
37 | < 1000 nM | < 500 nM | Nc1cccc(C=C2c3ccccc3CCc3ccsc32)c1 [Example 498]
38 | < 500 nM | < 500 nM | CS(=O)(=O)Nc1cccc(/C=C2/c3ccc(Cl)cc3CCc3sccc32)c1 [Example 499]
39 | < 500 nM | < 500 nM | CS(=O)(=O)Nc1cccc(/C=C2\c3ccccc3CCc3ccsc32)c1 [Example 501]
40 | < 500 nM | < 500 nM | CS(=O)(=O)Nc1cccc(/C=C2/c3ccccc3CCc3ccsc32)c1 [Example 502]
41 | < 500 nM | < 500 nM | O=S(=O)(Nc1cccc(/C=C2/c3ccccc3CCc3sccc32)c1)c1ccccc1 [Example 503]
42 | < 500 nM | < 500 nM | CS(=O)(=O)Nc1cccc(C=C2c3ccccc3CCc3occc32)c1 [Example 504]
